± gives the standard deviation of the averaged measurements.
Assay: TIMS collisional cross section (CCS, N2) of the lipid ion; higher = larger ion cross section
Details: ionization mode: negative, one isomer drawn
Protocol: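 Lipid extracts of human plasma (NIST SRM 1950), mouse liver or HeLa cells were separated by nanoflow C18 LC (30 min gradient) and analysed by TIMS-PASEF on a timsTOF Pro. Ion mobility was calibrated with the Agilent tuning mix (negative mode ions) and converted to collisional cross sections (Mason–Schamp, N2).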
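Also: lipids from MTBE extraction, five replicate injections per sample, 100 ms TIMS ramp spanning 0.6–1.95 Vs/cm², lipid identity assigned from PASEF MS/MS spectra.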

## CCCCCCCC/C=C\CCCCCCCC(=O)O[C@H](CO/C=C\CCCCCCCCCCCC)COP(=O)([O-])OCC[N+](C)(C)C [PC P- 14:0@_18:1]
Sample type: Human plasma, ion (formula + adduct): [C40H78NO7P-CH3] 1-
  TIMS collisional cross section: 267.3 Å²

## CCCCCC/C=C\CCCCCCCC(=O)O[C@H](CO/C=C\CCCCCCCCCCCCCC)COP(=O)([O-])OCC[N+](C)(C)C [PC P- 16:0@_16:1]
Sample type: Mouse Liver, ion (formula + adduct): [C40H78NO7P+OAcO] 1-
  TIMS collisional cross section: 283.6 Å²

## CC/C=C\C/C=C\C/C=C\C/C=C\C/C=C\CCCC(=O)O[C@H](CO/C=C\CCCCCCCCCCCCCC)COP(=O)([O-])OCC[N+](C)(C)C [PC P- 16:0@_20:5]
Sample type: Human plasma, ion (formula + adduct): [C44H78NO7P+HCOO] 1-
  TIMS collisional cross section: 292.2 Å²
Sample type: Human plasma, ion (formula + adduct): [C44H78NO7P-CH3] 1-
  TIMS collisional cross section: 275.1 Å²

## CCCCC/C=C\C/C=C\C/C=C\C/C=C\CCCCCC(=O)O[C@H](CO/C=C\CCCCCCCCCCCCCC)COP(=O)([O-])OCC[N+](C)(C)C [PC P- 16:0@_22:4]
Sample type: Human plasma, ion (formula + adduct): [C46H84NO7P-CH3] 1-
  TIMS collisional cross section: 282.5 Å²

## CC/C=C\C/C=C\C/C=C\C/C=C\C/C=C\C/C=C\CCC(=O)O[C@H](CO/C=C\CCCCCCCCCCCCCC)COP(=O)([O-])OCC[N+](C)(C)C [PC P- 16:0@_22:6]
Sample type: Human plasma, ion (formula + adduct): [C46H80NO7P+HCOO] 1-
  TIMS collisional cross section: 296.7 Å²
Sample type: Human plasma, ion (formula + adduct): [C46H80NO7P-CH3] 1-
  TIMS collisional cross section: 280.2 Å²
Sample type: Mouse Liver, ion (formula + adduct): [C46H80NO7P-CH3] 1-
  TIMS collisional cross section: 279.6 Å²

## CCCCCCCCCCCCCC/C=C\OC[C@H](COP(=O)([O-])OCC[N+](C)(C)C)OC(=O)CCCCCCCCCCCCCCC [PC P- 16:0_16:0]
Sample type: Human plasma, ion (formula + adduct): [C40H80NO7P+HCOO] 1-
  TIMS collisional cross section: 287.8 Å²
Sample type: Mouse Liver, ion (formula + adduct): [C40H80NO7P-CH3] 1-
  TIMS collisional cross section: 267.55 ± 2 Å²

## CC/C=C\C/C=C\C/C=C\C/C=C\C/C=C\CCCC(=O)O[C@H](CO/C=C\CCCCCCCCCCCCCCCC)COP(=O)([O-])OCC[N+](C)(C)C [PC P- 18:0@_20:5]
Sample type: Human plasma, ion (formula + adduct): [C46H82NO7P+HCOO] 1-
  TIMS collisional cross section: 296.1 Å²

## CC/C=C\C/C=C\C/C=C\C/C=C\C/C=C\C/C=C\CCC(=O)O[C@H](CO/C=C\CCCCCCCCCCCCCCCC)COP(=O)([O-])OCC[N+](C)(C)C [PC P- 18:0@_22:6]
Sample type: Mouse Liver, ion (formula + adduct): [C48H84NO7P-CH3] 1-
  TIMS collisional cross section: 285.8 Å²

## CCCCC/C=C\C/C=C\CCCCCCCC(=O)O[C@H](CO/C=C\CCCCCCCCCCCCCCCCCC)COP(=O)([O-])OCC[N+](C)(C)C [PC P- 20:0@_18:2]
Sample type: Human plasma, ion (formula + adduct): [C46H88NO7P-CH3] 1-
  TIMS collisional cross section: 285.4 Å²

## CC/C=C\C/C=C\C/C=C\C/C=C\C/C=C\C/C=C\CCC(=O)O[C@H](COC(=O)CCCCCCCCCCCCCC)COP(=O)(O)OCCN [PE 15:0_22:6]
Sample type: Mouse Liver, ion (formula + adduct): [C42H72NO8P-H] 1-
  TIMS collisional cross section: 271.6 Å²

## CC/C=C\C/C=C\C/C=C\C/C=C\C/C=C\C/C=C\CCC(=O)OC(COC(=O)CCCCCCCCCCCCCCC)COP(=O)(O)OCCN (stereo unspecified) [PE 16:0@_22:6]
Sample type: Human plasma, ion (formula + adduct): [C43H74NO8P-H] 1-
  TIMS collisional cross section: 275 Å²

## CCCCCCCCCCCCCCCC(=O)OCC(COP(=O)(O)OCCN)OC(=O)CCCCCCCCCCCCCCC (stereo unspecified) [PE 16:0_16:0]
Sample type: Mouse Liver, ion (formula + adduct): [C37H74NO8P-H] 1-
  TIMS collisional cross section: 263.3 Å²

## CCCCCCCC/C=C\CCCCCCCC(=O)OC(COC(=O)CCCCCCCCCCCCCCC)COP(=O)(O)OCCN (stereo unspecified) [PE 16:0_18:1]
Sample type: Human plasma, ion (formula + adduct): [C39H76NO8P-H] 1-
  TIMS collisional cross section: 268.4 Å²
Sample type: Mouse Liver, ion (formula + adduct): [C39H76NO8P-H] 1-
  TIMS collisional cross section: 268.4 Å²

## CCCCC/C=C\C/C=C\CCCCCCCC(=O)OC(COC(=O)CCCCCCCCCCCCCCC)COP(=O)(O)OCCN (stereo unspecified) [PE 16:0_18:2]
Sample type: Human plasma, ion (formula + adduct): [C39H74NO8P-H] 1-
  TIMS collisional cross section: 266.6 Å²
Sample type: Mouse Liver, ion (formula + adduct): [C39H74NO8P-H] 1-
  TIMS collisional cross section: 266.6 Å²

## CC/C=C\C/C=C\C/C=C\CCCCCCCC(=O)O[C@H](COC(=O)CCCCCCCCCCCCCCC)COP(=O)(O)OCCN [PE 16:0_18:3]
Sample type: Mouse Liver, ion (formula + adduct): [C39H72NO8P-H] 1-
  TIMS collisional cross section: 264.9 Å²

## CCCCCCCCC/C=C\CCCCCCCC(=O)O[C@H](COC(=O)CCCCCCCCCCCCCCC)COP(=O)(O)OCCN [PE 16:0_19:1]
Sample type: Mouse Liver, ion (formula + adduct): [C40H78NO8P-H] 1-
  TIMS collisional cross section: 271.2 Å²

## CCCCCCCC/C=C\CCCCCCCCCC(=O)O[C@H](COC(=O)CCCCCCCCCCCCCCC)COP(=O)(O)OCCN [PE 16:0_20:1]
Sample type: Mouse Liver, ion (formula + adduct): [C41H80NO8P-H] 1-
  TIMS collisional cross section: 275.2 Å²

## CCCCC/C=C\C/C=C\C/C=C\C/C=C\CCCC(=O)O[C@H](COC(=O)CCCCCCCCCCCCCCC)COP(=O)(O)OCCN [PE 16:0_20:4]
Sample type: Mouse Liver, ion (formula + adduct): [C41H74NO8P-H] 1-
  TIMS collisional cross section: 270.7 ± 0.46 Å²

## CCCCC/C=C\C/C=C\C/C=C\C/C=C\CCCCCC(=O)O[C@H](COC(=O)CCCCCCCCCCCCCCC)COP(=O)(O)OCCN [PE 16:0_22:4]
Sample type: Human plasma, ion (formula + adduct): [C43H78NO8P-H] 1-
  TIMS collisional cross section: 276.8 Å²

## CC/C=C\C/C=C\C/C=C\C/C=C\C/C=C\C/C=C\CCC(=O)OC(COC(=O)CCCCCCCCCCCCCCC)COP(=O)(O)OCCN (stereo unspecified) [PE 16:0_22:6]
Sample type: Mouse Liver, ion (formula + adduct): [C43H74NO8P-H] 1-
  TIMS collisional cross section: 274.62 ± 0.25 Å²

## CCCCCC/C=C\CCCCCCCC(=O)OC[C@H](COP(=O)(O)OCCN)OC(=O)CCCCCCCCCCCCCCC [PE 16:1_16:0]
Sample type: Human plasma, ion (formula + adduct): [C37H72NO8P-H] 1-
  TIMS collisional cross section: 261.6 Å²
Sample type: Mouse Liver, ion (formula + adduct): [C37H72NO8P-H] 1-
  TIMS collisional cross section: 261.6 Å²

## CCCCCC/C=C\CCCCCCCC(=O)OCC(COP(=O)(O)OCCN)OC(=O)CCCCCCC/C=C\CCCCCC (stereo unspecified) [PE 16:1_16:1]
Sample type: Mouse Liver, ion (formula + adduct): [C37H70NO8P-H] 1-
  TIMS collisional cross section: 259.3 Å²

## CCCCCC/C=C\CCCCCCCC(=O)OC[C@H](COP(=O)(O)OCCN)OC(=O)CCCCCCC/C=C\CCCCCCC [PE 16:1_17:1]
Sample type: Mouse Liver, ion (formula + adduct): [C38H72NO8P-H] 1-
  TIMS collisional cross section: 263.2 Å²

## CC/C=C\C/C=C\C/C=C\C/C=C\C/C=C\CCCC(=O)O[C@H](COC(=O)CCCCCCC/C=C\CCCCCC)COP(=O)(O)OCCN [PE 16:1_20:5]
Sample type: Mouse Liver, ion (formula + adduct): [C41H70NO8P-H] 1-
  TIMS collisional cross section: 267.1 Å²

## CCCCC/C=C\C/C=C\CCCCCCCC(=O)O[C@H](COC(=O)CCCCCCCCCCCCCCCC)COP(=O)(O)OCCN [PE 17:0_18:2]
Sample type: Mouse Liver, ion (formula + adduct): [C40H76NO8P-H] 1-
  TIMS collisional cross section: 269.4 Å²

## CCCCC/C=C\C/C=C\C/C=C\C/C=C\CCCC(=O)O[C@H](COC(=O)CCCCCCCCCCCCCCCC)COP(=O)(O)OCCN [PE 17:0_20:4]
Sample type: Mouse Liver, ion (formula + adduct): [C42H76NO8P-H] 1-
  TIMS collisional cross section: 273.9 Å²

## CCCCC/C=C\C/C=C\CCCCCCCC(=O)O[C@H](COC(=O)CCCCCCC/C=C\CCCCCCC)COP(=O)(O)OCCN [PE 17:1_18:2]
Sample type: Mouse Liver, ion (formula + adduct): [C40H74NO8P-H] 1-
  TIMS collisional cross section: 267.7 Å²

## CCCCC/C=C\C/C=C\C/C=C\C/C=C\CCCC(=O)O[C@H](COC(=O)CCCCCCC/C=C\CCCCCCC)COP(=O)(O)OCCN [PE 17:1_20:4]
Sample type: Mouse Liver, ion (formula + adduct): [C42H74NO8P-H] 1-
  TIMS collisional cross section: 271.6 Å²

## CC/C=C\C/C=C\C/C=C\C/C=C\C/C=C\C/C=C\CCC(=O)O[C@H](COC(=O)CCCCCCC/C=C\CCCCCCC)COP(=O)(O)OCCN [PE 17:1_22:6]
Sample type: Mouse Liver, ion (formula + adduct): [C44H74NO8P-H] 1-
  TIMS collisional cross section: 275.5 Å²

## CCCCC/C=C\C/C=C\CCCCCCCC(=O)OC(COC(=O)CCCCCCCCCCCCCCCCC)COP(=O)(O)OCCN (stereo unspecified) [PE 18:0@_18:2]
Sample type: Human plasma, ion (formula + adduct): [C41H78NO8P-H] 1-
  TIMS collisional cross section: 273.4 Å²

## CC/C=C\C/C=C\C/C=C\C/C=C\C/C=C\C/C=C\CCC(=O)OC(COC(=O)CCCCCCCCCCCCCCCCC)COP(=O)(O)OCCN (stereo unspecified) [PE 18:0@_22:6]
Sample type: Human plasma, ion (formula + adduct): [C45H78NO8P+AcO] 1-
  TIMS collisional cross section: 297.5 Å²

## CCCCCCCCCCCCCCCCCC(=O)OC[C@H](COP(=O)(O)OCCN)OC(=O)CCCCCCCCCCCCCCC [PE 18:0_16:0]
Sample type: Mouse Liver, ion (formula + adduct): [C39H78NO8P-H] 1-
  TIMS collisional cross section: 269.5 Å²

## CCCCCCCCCCCCCCCCCC(=O)OCC(COP(=O)(O)OCCN)OC(=O)CCCCCCCCCCCCCCCCC (stereo unspecified) [PE 18:0_18:0]
Sample type: Mouse Liver, ion (formula + adduct): [C41H82NO8P-H] 1-
  TIMS collisional cross section: 275.1 Å²

## CCCCCCCC/C=C\CCCCCCCC(=O)OC(COC(=O)CCCCCCCCCCCCCCCCC)COP(=O)(O)OCCN (stereo unspecified) [PE 18:0_18:1]
Sample type: Human plasma, ion (formula + adduct): [C41H80NO8P-H] 1-
  TIMS collisional cross section: 274.6 Å²

— the supplement of paper PMC6965134
